In article PMC6842111 (Neuron, 2019):
Where two headings read alike, the source gives them in different places.

Experiments:
[1] = pKa of the bridging nitrogen; format: physicochemical; settings: positively-charged bridging nitrogen of the bicyclic ring
human α3β4 receptor = settings: ref Tuan et al., 2015; cited from earlier work
α3β4 = settings: cited from earlier work
α3β4 receptor [2] = target: T1, α3β4 receptor (Homo sapiens, UniProt P30926+P32297, DEL362-406/DEL379-429/F412N/I408D/INS413[…]/INS432[…]/L414K/P409L/R410E/R415Y/S416L/S433L/V431D); format: binding; settings: Fab in large excess (1 μM); Fig. S1C-F
α3β4 receptor [3] = target: T1, α3β4 receptor; assay: Functional response to nicotine in presence of Fab; format: cell-based; settings: Fig. S1B
[4] = ref Eaton et al., 2003, Xiao et al., 1998

CN1C2CCCC1CC(Nc1ccccc1Br)C2 (centres unmarked) [AT-1001]
pKa [1]: 9.35 | affinity to the human α3β4 receptor (human α3β4 receptor): sub-nanomolar | selectivity for α3β4 over α4β2 (human α3β4 receptor): ~ 200 fold

CC(=O)OCC[N+](C)(C)C [acetylcholine]
affinity lower for α3β4 than for α4β2 (α3β4; [4]): 10-100 fold

Clc1ccc(C2CC3CCC2N3)cn1 (centres unmarked) [epibatidine]
affinity lower for α3β4 than for α4β2 (α3β4; [4]): 10-100 fold

CN1CCC[C@H]1c1cccnc1 [nicotine]
affinity lower for α3β4 than for α4β2 (α3β4): 10-100 fold

B1: Fab: Fab fragment of the 4G9 mouse monoclonal antibody (IgG2b, κ) raised against α3β4 (antibody, V domains shown)
VH: QVQLQQSGPELVRPGVSVKISCKGSGYTFTDYALYWVRQSHAKSLEWIGVINPYSGNTNYNQKFKGKATMTVDKSSSTAYMELARLTSDDSAIYYCASGYDGYPYTMDYWGPGASVTVSS
VL: QIVLTQSPAIMSASPGEKVTMTCSASSSMTYMHWYQQKSGTSPKRWIYDTSQLASGVPARFRGSGSGTSFSLTISSMEAEDAATYYCQQWSSNPLTFGGGTKLELK
effect on ligand binding (α3β4 receptor [2]): small positive effect | effect on the functional response to nicotine (α3β4 receptor [3]): little to no effect
